Laboratory results published in patent US7875653B2, “Emulsion comprising 1,2-alkanediols and polar oil components” (Beiersdorf AG, priority 2005, dated 2011).

Assay: Polarity: interfacial tension towards water
Format: physicochemical
Text: Oils and fats differ from one another in their polarity, which is difficult to define. It has already been proposed to adopt the interfacial tension towards water as a measure of the polarity index of an oil or of an oil phase. The lower the interfacial tension between this oil phase and water, the greater the polarity of the oil phase in question. According to the present invention, the interfacial tension is regarded as one possible measure of the polarity of a given oil component.
The interfacial tension is the force which acts on an imaginary line one meter in length at the interface between two phases. The physical unit for this interfacial tension is conventionally calculated from the force/length relationship and is usually expressed in mN/m (millinewtons divided by meters). It has a positive sign if it tends to reduce the interface. In the converse case, it has a negative sign. For the purposes of the present invention, lipids are regarded as polar if their interfacial tension towards water is less than about 20 mN/m, and as nonpolar if their interfacial tension towards water is more than about 30 mN/m. Lipids with an interfacial tension towards water between about 20 and about 30 mN/m are generally referred to as moderately polar.

[1] = polar lipids, less than about 20 mN/m
[2] = moderately polar lipids, between about 20 and about 30 mN/m

Polarity (interfacial tension towards water) [1] | Polarity (interfacial tension towards water) [2] | Compound
14.3 mN/m | – | CCCCOC(=O)CCCCC(=O)OCCCC [Cetiol B, Dibutyl adipate]
– | 29.9 mN/m | CC(C)CCCCCCCOC(=O)C(C)(C)C [DUB VCI 10, Isodecyl neopentanoate]
– | 26.2 mN/m | CCCCC(CC)C(=O)OCCC(C)CC(C)(C)C (stereo not shown) [Dermol 98, 2-Ethylhexanoic acid 3,5,5 trimethyl ester]
– | 29.6 mN/m | CCCCCCCC(=O)OCCCCCCCC(C)C [Dermol 108, Isodecyl octanoate]
– | 29.7 mN/m | CCCCCCCCCC(=O)OCCCC(C)C [Dermol IHD, Isohexyl decanoate]
– | 29.2 mN/m | CCCCCCOCCCCCC [Dihexyl ether]
– | 21.9 mN/m | CCCCCCCCCCCCCCCCCC(=O)OC(C)C [Isopropyl stearate]
– | 22.1 mN/m | CCCCCCCCCCCCCC(=O)OCC(CCCCCCCC)CCCCCCCCCC (stereo not shown) [M.O.D., Octyldodecyl myristate]
17.8 mN/m | – | CCCCCCCCCCCCCCCCCCOC(=O)CCCCCC [Tegosoft SH, Stearyl heptanoate]
– | 20.2 mN/m | CCCCCCCC(=O)OCC(COC(=O)CCCCCCC)OC(=O)CCCCCCC [Trivent OCG, Tricaprylin]
– | 24.5 mN/m | Isotridecyl 3,5,5 trimethyl hexanona-noate [Dermol 139]
2.4 mN/m | – | Triisostearin [Prisorine 2041 GTIS]

Compound | Polarity (interfacial tension towards water) [1] | Polarity (interfacial tension towards water) [2]
CC(C)CCCCCCCOC(=O)CC(C)CC(C)(C)C (stereo not shown) [Dermol 109, Isodecyl 3,5,5-trimethyl hexanoate] | – | 29.1 mN/m
CCCCCCCCCCC(CO)CCCCCCCC (stereo not shown) [Eutanol G, Octyldodecanol] | – | 24.8 mN/m
CCCCCCC(CCCC)C(=O)O (stereo not shown) [Isocarb 12, Butyl octanoic acid] | – | 22.1 mN/m
PEG 2 Diethylene hexanoate [Dermol 488] | 10.1 mN/m | –
